From patent US20120064062A1 (priority 2010, published 2012) come the findings set out here.

Structures are written as SMILES. Where a SMILES comes first, the peptide text is derived from it. [ ]: non-standard residue; d: D form. The star is where a group is joined. Sta = CC(C)C[C@H](N)[C@@H](O)CC(=O)O; Isovaleryl = CC(C)CC(=O)*

Series [1] has as its target Y. pestis Pla (Yersinia pestis, UniProt P17811). Description: biochemical.
Series [2] concerns the target T1, Pla (Yersinia pestis, UniProt P17811). The experiment in a line: biochemical.
Series [3] deals with Plasmin (Homo sapiens, UniProt P00747). The experiment in a line: Plasmin inhibitory activity counter-screen (coupling enzyme). In kind it is biochemical. The note with it: z-score = number of standard deviations the enzymatic activity falls below the DMSO non-inhibitory control. For orientation: The purpose of a counterscreen is to sort out artefacts and off-target activity.
Plasmin, sequence (P00747 581-810 limits assumed): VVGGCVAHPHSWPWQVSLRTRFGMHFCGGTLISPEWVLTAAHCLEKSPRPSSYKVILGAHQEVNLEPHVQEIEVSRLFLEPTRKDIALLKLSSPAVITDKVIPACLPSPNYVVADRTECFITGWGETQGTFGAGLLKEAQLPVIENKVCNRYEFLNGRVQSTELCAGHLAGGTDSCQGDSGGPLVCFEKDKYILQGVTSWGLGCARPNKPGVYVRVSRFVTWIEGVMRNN
Plasmin, sequence (P00747 97-580 partner limits assumed): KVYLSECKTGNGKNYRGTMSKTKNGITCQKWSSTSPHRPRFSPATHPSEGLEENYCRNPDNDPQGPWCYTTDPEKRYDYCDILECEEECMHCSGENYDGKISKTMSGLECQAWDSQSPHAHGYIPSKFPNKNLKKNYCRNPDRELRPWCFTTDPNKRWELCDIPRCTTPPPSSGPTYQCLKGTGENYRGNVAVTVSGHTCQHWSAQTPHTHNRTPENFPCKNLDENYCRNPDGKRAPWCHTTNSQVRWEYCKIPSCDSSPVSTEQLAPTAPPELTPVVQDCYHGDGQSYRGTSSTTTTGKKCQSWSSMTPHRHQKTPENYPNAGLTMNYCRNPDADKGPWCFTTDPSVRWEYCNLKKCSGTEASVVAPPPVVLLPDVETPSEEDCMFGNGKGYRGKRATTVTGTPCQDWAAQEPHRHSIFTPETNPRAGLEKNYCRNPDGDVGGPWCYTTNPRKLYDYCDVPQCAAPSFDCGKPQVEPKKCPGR
In series [4] the target is T2, tissue plasminogen activator (tPA) (Homo sapiens, UniProt P00750).
T2 construct: purchased US Biological, Inc. T5600-30
T2 sequence (P00750 36-562): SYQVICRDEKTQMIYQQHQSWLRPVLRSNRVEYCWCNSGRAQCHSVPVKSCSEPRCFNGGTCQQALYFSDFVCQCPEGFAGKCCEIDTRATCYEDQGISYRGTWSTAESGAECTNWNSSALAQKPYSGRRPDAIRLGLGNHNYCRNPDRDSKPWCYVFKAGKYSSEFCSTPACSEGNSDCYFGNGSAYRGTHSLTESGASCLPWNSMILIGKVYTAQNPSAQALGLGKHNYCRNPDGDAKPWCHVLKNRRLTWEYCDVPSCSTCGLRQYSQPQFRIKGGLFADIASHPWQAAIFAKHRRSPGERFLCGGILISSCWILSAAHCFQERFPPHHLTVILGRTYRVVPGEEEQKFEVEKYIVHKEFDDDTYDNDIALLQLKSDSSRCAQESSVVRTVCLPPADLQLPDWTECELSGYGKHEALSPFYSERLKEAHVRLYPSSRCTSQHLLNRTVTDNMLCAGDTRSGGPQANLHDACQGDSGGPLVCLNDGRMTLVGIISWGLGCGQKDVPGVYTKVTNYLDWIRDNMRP
Description: tPA plasminogen activator counter-screen (Glu-Plg, S2251). The following applies: z-score = number of standard deviations below DMSO control. The series is classed as biochemical.

Series [5] deals with T3, urokinase type plasminogen activator (uPA) (Homo sapiens, UniProt P00749).
T3 construct: purchased US Biological, Inc. U2605-01
The experiment in a line: uPA plasminogen activator counter-screen (Glu-Plg, S2251). In kind it is biochemical. The note with it: z-score = number of standard deviations below DMSO control.

Series [6] deals with T4, cathepsin D (Homo sapiens, UniProt P07339).
T4 construct: purchased R&D Systems 1014-AS-010
T4 sequence (P07339 65-412): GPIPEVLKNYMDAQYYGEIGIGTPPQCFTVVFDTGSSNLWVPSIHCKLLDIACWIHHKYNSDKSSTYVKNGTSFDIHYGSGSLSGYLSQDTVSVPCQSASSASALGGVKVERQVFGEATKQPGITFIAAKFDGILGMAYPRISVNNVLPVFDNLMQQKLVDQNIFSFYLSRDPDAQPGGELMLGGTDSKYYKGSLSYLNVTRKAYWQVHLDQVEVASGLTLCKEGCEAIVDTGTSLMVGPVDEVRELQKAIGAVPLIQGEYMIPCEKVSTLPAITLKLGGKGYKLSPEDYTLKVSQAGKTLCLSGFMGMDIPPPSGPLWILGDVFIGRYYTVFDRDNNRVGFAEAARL
The experiment in a line: Cathepsin D fluorometric counter-screen. In kind it is biochemical. The following applies: z-score = number of standard deviations below DMSO control.

The target of series [7] is T5, cathepsin E (Homo sapiens, UniProt P14091).
T5 construct: purchased R&D Systems 1294-AS-010
T5 sequence (P14091 54-396): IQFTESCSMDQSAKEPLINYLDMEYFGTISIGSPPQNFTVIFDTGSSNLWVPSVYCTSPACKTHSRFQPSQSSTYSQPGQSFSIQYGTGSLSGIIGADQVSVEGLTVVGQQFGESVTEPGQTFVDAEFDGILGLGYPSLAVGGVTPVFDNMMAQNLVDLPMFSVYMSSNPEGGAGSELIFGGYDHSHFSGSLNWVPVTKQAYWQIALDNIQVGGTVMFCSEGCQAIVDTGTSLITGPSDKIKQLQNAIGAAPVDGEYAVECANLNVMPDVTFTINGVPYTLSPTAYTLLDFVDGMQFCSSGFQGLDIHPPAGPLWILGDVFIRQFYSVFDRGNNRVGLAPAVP
The experiment in a line: Cathepsin E fluorometric counter-screen. The series is classed as biochemical. The note with it: z-score = number of standard deviations below DMSO control.

Series [8] has as its target T6, HIV-1 protease (Human immunodeficiency virus type 1 group M subtype B, UniProt P04585).
T6 construct: Plasmin, tPA, uPA, Cathepsin D, Cathepsin E, and HIV-1 protease
Description: HIV-1 protease counter-screen. In kind it is biochemical. The following applies: % of the enzymatic activity of a DMSO non-inhibitory control.

A short description of series [9]: Cytotoxicity to HeLa cells in serum-free culture (MTS). The following applies: human.
The target in series [10] is T1, Pla. In kind it is biochemical.
Target sequence in this assay (P17811 21-312 limits assumed): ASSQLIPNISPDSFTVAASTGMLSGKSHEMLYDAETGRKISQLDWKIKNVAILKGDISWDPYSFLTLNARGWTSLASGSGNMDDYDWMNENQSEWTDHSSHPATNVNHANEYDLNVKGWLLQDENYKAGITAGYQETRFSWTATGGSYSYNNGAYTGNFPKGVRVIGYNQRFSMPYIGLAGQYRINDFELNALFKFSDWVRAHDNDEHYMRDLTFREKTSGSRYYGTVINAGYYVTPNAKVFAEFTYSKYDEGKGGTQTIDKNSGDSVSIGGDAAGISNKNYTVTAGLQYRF

Y. pestis Pla, sequence (P17811 21-312 limits assumed): as above

As usually defined, the IC50 is the concentration that inhibits the measured activity by half. A lower IC50 goes with inhibition by little substance. For the compound `COC(=O)c1c(C)oc2ccc(N(C(=O)c3ccncc3)S(=O)(=O)c3ccc(F)cc3C)cc12` [A], in series [1], inhibition was half-maximal at 6.6 µM (IC50).
The term Ki denotes a measure of affinity in units of concentration, obtained from inhibition or displacement. Take `NC(N)=NCCC[C@H](N)C(=O)NCC(=O)O` [Arg-Gly] (H-Arg-Gly-OH): in [2], the Ki worked out at 5200 µM.
The same measure, in the same setting: with `NCCCC[C@H](NC(=O)[C@@H](N)CCCN=C(N)N)C(=O)O` [Arg-Lys] (H-Arg-Lys-OH) the figure was 900 µM; with `CC(C)[C@H](NC(=O)[C@@H](N)CCCNC(=N)N)C(=O)O` [Arg-Val] (H-Arg-Val-OH; N-terminus and C-terminus assumed), 4800 µM.
As to `O=S(=O)(Nc1ccccc1-c1ccccc1)c1ccc(Br)s1` [B], the IC50 in series [1] amounted to 8.9 µM.
In [1], `COc1ccc(S(=O)(=O)Nc2ccccc2Oc2ccccc2)cc1C` [C] displayed an IC50 of 22 µM.
One may read the inhibition as how much of the control response was suppressed. As a reminder, the CC50 is the concentration that lowers cell viability or growth by half. The low end stands for greater toxicity to the cells, the high end for lower toxicity to the cells. In turn, `O=S(=O)(Nc1cc(Cl)ccc1Oc1ccccc1)c1ccc2c(c1)OCCO2` [Compound 1] came in with a 50% inhibitory concentration (IC50) in series [1] of 4.25 µM. The “Plasmin Z-Score at 50 μM” value in [3] was determined as 4.9. In addition, the “tPA Z-Score at 50 μM” value in [4] was −0.3. Besides, the “uPA Z-Score at 50 μM” value in series [5] was determined as 0.5. For the same compound, in [6], the “Cathepsin-D Z-Score at 50 μM” value is −0.2. Besides, the “Cathepsin-E Z-Score at 50 μM” value in series [7] is given as −0.1. In series [8], this compound showed an inhibition at 50 µM of 10%. The same compound yielded a CC50 in [9] above 100 µM.
For the compound `O=S(=O)(Nc1ccccc1-c1ccccc1)c1cccs1` [Compound 2], the half-inhibitory concentration (IC50) in [1] is 4.3 µM. In addition, the “Plasmin Z-Score at 50 μM” value in series [3] is given as 1.8. In addition, the “tPA Z-Score at 50 μM” value in [4] stood at 0.5. Further, the “uPA Z-Score at 50 μM” value in [5] was 0.5. Moreover, in series [6], the “Cathepsin-D Z-Score at 50 μM” value is reported as −1.6. In addition, the “Cathepsin-E Z-Score at 50 μM” value in series [7] was −0.3. Further, in [8], testing at 50 µM gave an inhibition of 2%. Further, half-maximal cytotoxicity in series [9] (CC50) was put at 62 µM.
Regarding `O=S(=O)(Nc1cc(Cl)ccc1Oc1ccccc1)c1cccs1` [Compound 3], the IC50 in [1] was found to be 1 µM. The “Plasmin Z-Score at 50 μM” value in [3] stood at 2.5. In series [4], the “tPA Z-Score at 50 μM” value is given as 0.3. Moreover, the “uPA Z-Score at 50 μM” value in series [5] worked out at 0.5. Further, in series [6], the “Cathepsin-D Z-Score at 50 μM” value is listed as 0. Besides, the “Cathepsin-E Z-Score at 50 μM” value in series [7] stood at 0.4. Also, in series [8], the inhibition at 50 µM is 13%. Further, in series [9], the midpoint of cytotoxicity, the CC50, lay at 49 µM and the selectivity ratio was around 50.
`O=[N+]([O-])c1ccccc1S(=O)(=O)Nc1cc(Cl)ccc1Oc1ccccc1` [Compound 4] showed an IC50 in series [1] of 9.9 µM. For the same compound, the “Plasmin Z-Score at 50 μM” value in series [3] worked out at 1.4. Further, the “tPA Z-Score at 50 μM” value in [4] turned out to be 0.4. Besides, in series [5], the “uPA Z-Score at 50 μM” value turned out to be 1. Moreover, the “Cathepsin-D Z-Score at 50 μM” value in [6] amounted to 0.6. Besides, the “Cathepsin-E Z-Score at 50 μM” value in series [7] was 0.9. The compound also had an inhibition at 50 µM in series [8] of 11%. In [9], it took 47 µM to reach half-maximal cytotoxicity (CC50).
`O=S(=O)(Nc1ccccc1C1=NCCc2ccccc21)c1ccc(Cl)cc1` [D] came in with an IC50 in series [1] of 35.8 µM.
In the case of `O=C(O)CN(CCN(CC(=O)O)CC(=O)O)CC(=O)O` [EDTA], in [10], the “Inhibitory effect against Pla” value is on record as “enhance activity”.
For the compound `O=C(O)CN(CCOCCOCCN(CC(=O)O)CC(=O)O)CC(=O)O` [EGTA], the “Inhibitory effect against Pla” value in [10] is “enhance activity”.
For the compound `CC(=O)Nc1ccc(S(=O)(=O)Nc2ccccc2Oc2ccccc2)cc1` [E], the 50% inhibitory concentration (IC50) in series [1] is 50.4 µM.
The same measure, in the same setting: under `COc1ccc(S(=O)(=O)Nc2ccccc2Oc2ccccc2)c(OC)c1` [F] stands 52.3 µM; under `COc1ccc(C)cc1S(=O)(=O)Nc1cc(Cl)ccc1Oc1ccccc1` [G], 84.2 µM.
As to `Cc1ccc(S(=O)(=O)Nc2ccccc2C(=O)c2ccccc2)cc1` [H], half-maximal inhibition in series [1] (IC50) was put at 100 µM.
Regarding `O=S(=O)(Nc1ccccc1Oc1ccccc1)c1cc(Cl)ccc1Cl` [I], in series [1], half-maximal inhibition (IC50) required 139 µM.
Compound `NCCCC[C@H](N)C(=O)NCC(=O)O` [Lys-Gly] (H-Lys-Gly-OH) had an inhibitory constant (Ki) in [2] of 5600 µM.
In turn, `NCCCC[C@H](NC(=O)[C@@H](N)CCCCN)C(=O)O` [Lys-Lys] displayed an inhibition constant Ki in series [2] of 4500 µM.
For `CC(C)[C@H](NC(=O)[C@@H](N)CCCCN)C(=O)O` [Lys-Val, reference compound] (H-Lys-Val-OH; C-terminus assumed), the inhibition at 16000 µM in series [1] (read-out: Average inhibition) worked out at 60%. The compound further showed a Ki in [2] of 8400 µM.
Consider `CC(C)CC(=O)N[C@H](C(=O)N[C@H](C(=O)N[C@@H](CC(C)C)[C@@H](O)CC(=O)N[C@@H](C)C(=O)N[C@@H](CC(C)C)[C@@H](O)CC(=O)O)C(C)C)C(C)C` [pepstatin] (Isovaleryl-VV[Sta]A[Sta]-OH), for which the “Inhibitory effect against Pla” value in [10] is on record as “no inhibitory effect”.
